Marks after values point to notes of the source that are not given here.
How the values were obtained:
[1] = molecular target: T1, cathepsin B (human Liver) (Homo sapiens, UniProt P07858); test: Inhibition constant (Ki) of the compounds to cathepsin B; type: biochemical; conditions: read-out: CatB K1
T1 construct: from tissue; host or cells: human liver
Description: Determination of the Km and Vmax of Cathepsin B for Z-Arg-Arg-AMC
The solution of cathepsin B (human Liver) (50 μL, 2 nM) in assay buffer used above was mixed with 50 μL of solution of substrate Z-Arg-Arg-AMC in the assay buffer at different concentrations ([S]) (25 μM, 50 μM, 100 μM, 500 μM and 1 mM). The mixture was incubated at 37° C. and the fluorescence of the liberated aminomethylcoumarin at 460 nM using 355 nm excitation was measured at predetermined time points (0, 2, 4, 6, 8, and 10 minutes). The fluorescence intensity was plotted versus time and the reaction rates (v0) were calculated as the slope of the trend lines obtained by liner regression. Km and maximum reaction rate (Vmax-obs) was determined from the equation v0=Vmax[S]/(Km+[S]) and solved by nonlinear regression using GraphPad Prism 5. All measurements were in biological triplicate.
Determination of the Inhibition Constant (Ki) of the Compounds to Cathepsin B
The cathepsin B (human Liver) in assay buffer (25 μL) was mixed with the conjugate (25 μL) in 96-well plate. After the solution was mixed, the Z-Arg-Arg-AMC in assay buffer (50 μL) was added to the well, yielding a final cathepsin B concentration of 1 nM, conjugate concentration ([C]) of 15 nM or 5 μM, and substrate concentration ([S]) of 25 μM, 50 μM, 100 μM, 500 μM and 1 mM. The mixture was incubated at 37° C. and the fluorescence of the liberated aminomethylcoumarin at 460 nM using 355 nm excitation was measured at predetermined time points (0, 2, 4, 6, 8, and 10 minutes). The fluorescence intensity was plotted versus time with observed reaction rates (v0-obs) calculated as the slope of the trend lines obtained by liner regression. The observed rate constant (Kobs) and observed maximum reaction rate (Vmax-obs) was determined from the equation v0-obs=Vmax-obs [S]/(Kobs+[S]) and solved by nonlinear regression using GraphPad Prism 5. The Ki was calculated from the equation Kobs=Km (1+[C]/Ki). All measurements were in biological triplicate.

NTSR1 = molecular target: T2, NTSR1 (Homo sapiens, UniProt P30989); test: In vitro competitive neurotensin receptor binding in HT-29 cells vs 177Lu-N1; conditions: unlabeled conjugates
T2 construct: endogenous in cells; host or cells: HT-29 human colon cancer cells (ATCC)
T2 sequence (P30989 whole entry): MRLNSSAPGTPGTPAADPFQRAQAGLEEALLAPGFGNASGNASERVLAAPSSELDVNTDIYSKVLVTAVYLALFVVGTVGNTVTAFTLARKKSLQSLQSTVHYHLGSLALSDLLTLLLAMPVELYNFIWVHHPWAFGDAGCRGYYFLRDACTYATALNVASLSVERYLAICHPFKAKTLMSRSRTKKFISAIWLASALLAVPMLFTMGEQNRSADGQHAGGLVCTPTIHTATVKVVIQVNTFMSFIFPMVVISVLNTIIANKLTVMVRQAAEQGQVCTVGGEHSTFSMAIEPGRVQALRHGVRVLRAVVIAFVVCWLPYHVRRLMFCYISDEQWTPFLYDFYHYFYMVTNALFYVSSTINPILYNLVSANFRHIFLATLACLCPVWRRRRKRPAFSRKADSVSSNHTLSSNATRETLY
Description: In Vitro Competitive Neurotensin Receptor Binding Studies
The IC50 for the unlabeled conjugates binding to the neurotensin receptors was determined using the HT-29 human colon cancer cell line. […]. Med. Biol., 42:816), served as the competitive radioligand for comparing the relative binding affinities of the conjugates. HT-29 cells (˜1×10^6) suspended in 100 μL of McCoy's 5A medium (pH 7.4, 4.8 mg/mL HEPES, and 2 mg/mL BSA) were incubated with 177Lu-N1 (100,000 cpm, 100 μL) at 37° C. for 45 minutes in the presence of the conjugates with predetermined concentrations (0.5 nM-1 μM) in 100 μL of medium. At the end of the incubation, the cells were centrifuged, aspirated, and washed with fresh medium (5×500 μL). The cell-associated radioactivity was measured using gamma counter and the IC50 values determined by nonlinear regression using GraphPad Prism 5. All measurements were in biological triplicate.

[2] = Distribution coefficient (Log D7.4) of the conjugates; type: physicochemical; conditions: determined by radiometric analysis; 177Lu-labeled conjugate
Description: Distribution Coefficient (Log D7.4) of the Conjugates The distribution coefficient was determined for each ^177Lu-labeled conjugate. In a 1.5 mL centrifuge tube, 0.5 mL of 1-octanol was added to 0.5 mL of PBS (pH 7.4) containing the radiolabeled peptide (500,000 cpm). The solution was vigorously vortexed for 2 minutes at room temperature and subsequently centrifuged to yield two immiscible layers. The radioactivity of the aliquots (100 μL) taken from each layer were quantified by the gamma counter and the Log D7.4 for each conjugates was calculated.

| Ki [1] | IC50 (NTSR1) | Compound | logD7.4 [2] |
| --- | --- | --- | --- |
| 25 ± 4 nM | 20 ± 2 nM | Cc1cc(C)c(C(=O)OCC(=O)[C@H](CCCCn2cc(C[C@H](NC(=O)CN3CCN(CC(=O)O)CCN(CC(=O)O)CCN(CC(=O)O)CC3)C(=O)NCCC(=O)N[C@@H](CCCCN)C(=O)N3CCC[C@H]3C(=O)N(C)[C@@H](CCCNC(=N)N)C(=O)N[C@@H](CCCNC(=N)N)C(=O)N3CCC[C@H]3C(=O)N[C@@H](Cc3c(C)cc(O)cc3C)C(=O)N[C@H](C(=O)N[C@@H](CC(C)C)C(=O)O)C(C)(C)C)nn2)NC(=O)[C@H](Cc2ccccc2)NC(=O)OCc2ccccc2)c(C)c1 [Compound 2a] | −1.46 ± 0.02^b |
| 73 ± 8 nM | 20 ± 3 nM | Cc1cc(C)c(C(=O)OCC(=O)[C@H](CCCCNC(=O)CNC(=O)[C@@H](CO)NC(=O)[C@@H](CO)NC(=O)[C@@H](CO)NC(=O)Cn2cc(C[C@H](NC(=O)CN3CCN(CC(=O)O)CCN(CC(=O)O)CCN(CC(=O)O)CC3)C(=O)NCCC(=O)N[C@@H](CCCCN)C(=O)N3CCC[C@H]3C(=O)N(C)[C@@H](CCCNC(=N)N)C(=O)N[C@@H](CCCNC(=N)N)C(=O)N3CCC[C@H]3C(=O)N[C@@H](Cc3c(C)cc(O)cc3C)C(=O)N[C@H](C(=O)N[C@@H](CC(C)C)C(=O)O)C(C)(C)C)nn2)NC(=O)[C@H](Cc2ccccc2)NC(=O)OCc2ccccc2)c(C)c1 [Compound 2d] | −1.79 ± 0.06^b |
| 26 ± 5 nM | 22 ± 2 nM | Cc1cc(C)c(C(=O)OCC(=O)[C@H](CCCCNC(=O)Cn2cc(C[C@H](NC(=O)CN3CCN(CC(=O)O)CCN(CC(=O)O)CCN(CC(=O)O)CC3)C(=O)NCCC(=O)N[C@@H](CCCCN)C(=O)N3CCC[C@H]3C(=O)N(C)[C@@H](CCCNC(=N)N)C(=O)N[C@@H](CCCNC(=N)N)C(=O)N3CCC[C@H]3C(=O)N[C@@H](Cc3c(C)cc(O)cc3C)C(=O)N[C@H](C(=O)N[C@@H](CC(C)C)C(=O)O)C(C)(C)C)nn2)NC(=O)[C@H](Cc2ccccc2)NC(=O)OCc2ccccc2)c(C)c1 [Compound 2b] | −1.49 ± 0.02^b |

| Compound | Ki [1] | IC50 (NTSR1) | logD7.4 [2] |
| --- | --- | --- | --- |
| Cc1cc(C)c(C(=O)OCC(=O)[C@H](CCCCNC(=O)CNC(=O)[C@@H](CO)NC(=O)[C@@H](CO)NC(=O)[C@@H](CO)NC(=O)Cn2cc(C[C@H](NC(=O)CN3CCN(CC(=O)O)CCN(CC(=O)O)CCN(CC(=O)O)CC3)C(=O)N[C@H](CO)C(=O)N[C@H](CO)C(=O)N[C@H](CO)C(=O)N[C@@H](CCCCN)C(=O)N3CCC[C@H]3C(=O)N(C)[C@@H](CCCNC(=N)N)C(=O)N[C@@H](CCCNC(=N)N)C(=O)N3CCC[C@H]3C(=O)N[C@@H](Cc3c(C)cc(O)cc3C)C(=O)N[C@H](C(=O)N[C@@H](CC(C)C)C(=O)O)C(C)(C)C)nn2)NC(=O)[C@H](Cc2ccccc2)NC(=O)OCc2ccccc2)c(C)c1 [Compound 2f] | 50 ± 13 nM | 18 ± 2 nM | – |
